From US10556888B2, “Pyrazole compounds or salts thereof, preparation methods therefor, herbicidal compositions and use thereof” (QINGDAO KINGAGROOT CHEMICAL COMPOUNDS CO., LTD, priority 2015, dated 2020)

Experiments:
[1] = tested on: Monocotyledonous and dicotyledonous weed; experiment: Post-emergence test experiment, weed control effect (Table 2); type: in vivo; set-up: key to weed control effect, Setaria viridis (level) / weed control effect, Rorippa indica (level) / weed control effect, Abutilon theophrasti (level) / weed control effect, Echinochloa crus-galli (level) / weed control effect, Digitaria sanguinalis (level): Level 10: completely dead; Level 9: above 90% growth inhibition rate; Level 8: above 80% growth inhibition rate; Level 7: above 70% growth inhibition rate; Level 6: above 60% growth inhibition rate; Level 5: above 50% growth inhibition rate; Level 4: above 30% growth inhibition rate; Level 3: above 20% growth inhibition rate; Level 2: above 10% growth inhibition rate; Level 1: above 1-10% growth inhibition rate; Level 0: no effect; settings: 3 weeks after spraying, greenhouse
Procedure, shortened: (§1)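 Compounds, dissolved in acetone, mixed with Tween 80 and diluted in water, were sprayed post-emergence onto greenhouse-grown weeds and crops at the 2-3 leaf stage (2-3 weeks post-sowing). Plants then grown 3 more weeks in the greenhouse before evaluation.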

[2] = tested on: main crop (wheat, corn, rice, soybean, cotton, oilseed, millet and sorghum); experiment: Post-emergence test experiment, main crops (Table 2); type: in vivo; set-up: key: Level 10: completely dead; Level 9: above 90% growth inhibition rate; Level 8: above 80% growth inhibition rate; Level 7: above 70% growth inhibition rate; Level 6: above 60% growth inhibition rate; Level 5: above 50% growth inhibition rate; Level 4: above 30% growth inhibition rate; Level 3: above 20% growth inhibition rate; Level 2: above 10% growth inhibition rate; Level 1: above 1-10% growth inhibition rate; Level 0: no effect; settings: 3 weeks after spraying, greenhouse
Procedure, shortened: as §1

Row | Structure (SMILES) | weed control effect, Abutilon theophrasti (level) ([1]; 30 g/ha) | weed control effect, Bidens pilosa (level) ([1]; 30 g/ha) | weed control effect, Digitaria sanguinalis (level) ([1]; 30 g/ha) | weed control effect, Echinochloa crus-galli (level) ([1]; 30 g/ha) | weed control effect, Rorippa indica (level) ([1]; 30 g/ha) | weed control effect, Setaria viridis (level) ([1]; 30 g/ha) | effect on crop, corn (level) ([2]; 30 g/ha) | effect on crop, rice (level) ([2]; 30 g/ha) | effect on crop, wheat (level) ([2]; 30 g/ha) | weed control effect, Abutilon theophrasti (level) ([1]; 120 g/ha) | weed control effect, Bidens pilosa (level) ([1]; 120 g/ha) | weed control effect, Digitaria sanguinalis (level) ([1]; 120 g/ha) | weed control effect, Echinochloa crus-galli (level) ([1]; 120 g/ha) | weed control effect, Rorippa indica (level) ([1]; 120 g/ha) | weed control effect, Setaria viridis (level) ([1]; 120 g/ha) | effect on crop, corn (level) ([2]; 120 g/ha) | effect on crop, rice (level) ([2]; 120 g/ha) | effect on crop, wheat (level) ([2]; 120 g/ha) | also measured
1 | CCOCCOCc1c(S(C)(=O)=O)ccc(C(=O)c2c(C3CC3)nn(CC)c2OC(=O)c2cnn(C)c2OCC)c1C [Compound 86] | 6 (Level 6: above 60% growth inhibition rate) | 7 (Level 7: above 70% growth inhibition rate) | 8 (Level 8: above 80% growth inhibition rate) | 8 (Level 8: above 80% growth inhibition rate) | 10 | 8 (Level 8: above 80% growth inhibition rate) | 0 | 3 (Level 3: above 20% growth inhibition rate) | 0 | – | – | – | – | – | – | – | – | – | –
2 | CCn1ncc(C(=O)c2ccc(S(C)(=O)=O)c(Cn3cc(C)cn3)c2C)c1OC(=O)c1cnn(C)c1 [Compound 87] | – | – | – | – | – | – | – | – | – | 6 (Level 6: above 60% growth inhibition rate) | 6 (Level 6: above 60% growth inhibition rate) | 1 (Level 1: above 1-10% growth inhibition rate) | 10 | 4 (Level 4: above 30% growth inhibition rate) | 3 (Level 3: above 20% growth inhibition rate) | 0 | 0 | 0 | –
3 | CC=CCOCc1c(S(C)(=O)=O)ccc(C(=O)c2cnn(CC)c2OC(=O)c2cnn(C)c2)c1Cl [Compound 88] | 6 (Level 6: above 60% growth inhibition rate) | 7 (Level 7: above 70% growth inhibition rate) | 8 (Level 8: above 80% growth inhibition rate) | 7 (Level 7: above 70% growth inhibition rate) | 10 | 8 (Level 8: above 80% growth inhibition rate) | 0 | 3 (Level 3: above 20% growth inhibition rate) | 0 | – | – | – | – | – | – | – | – | – | –
4 | CCn1nc(C)c(C(=O)c2ccc(S(C)(=O)=O)c(Cn3cccn3)c2Cl)c1OC(=O)c1cn(C)nc1C [Compound 89] | 7 (Level 7: above 70% growth inhibition rate) | 7 (Level 7: above 70% growth inhibition rate) | 7 (Level 7: above 70% growth inhibition rate) | 10 | 10 | 8 (Level 8: above 80% growth inhibition rate) | 1 (Level 1: above 1-10% growth inhibition rate) | 1 (Level 1: above 1-10% growth inhibition rate) | 0 | – | – | – | – | – | – | – | – | – | –
5 | CCn1nc(C2CC2)c(C(=O)c2ccc(S(C)(=O)=O)c(Cn3cc(C)cn3)c2Cl)c1OC(=O)c1cnn(C)c1 [Compound 91] | – | – | – | – | – | – | – | – | – | 6 (Level 6: above 60% growth inhibition rate) | 6 (Level 6: above 60% growth inhibition rate) | 1 (Level 1: above 1-10% growth inhibition rate) | 10 | 4 (Level 4: above 30% growth inhibition rate) | 3 (Level 3: above 20% growth inhibition rate) | 0 | 0 | 0 | –
6 | CCOc1c(C(=O)Oc2c(C(=O)c3ccc(S(C)(=O)=O)c(COC)c3Cl)c(C)nn2CC)cnn1C [Compound 92] | 5 (Level 5: above 50% growth inhibition rate) | 7 (Level 7: above 70% growth inhibition rate) | 8 (Level 8: above 80% growth inhibition rate) | 10 | 10 | 10 | 1 (Level 1: above 1-10% growth inhibition rate) | 3 (Level 3: above 20% growth inhibition rate) | 0 | – | – | – | – | – | – | – | – | – | –
7 | CCOc1c(C(=O)Oc2c(C(=O)c3ccc(S(C)(=O)=O)c(Cn4nc(C)cc4C)c3Cl)cnn2CC)cnn1C [Compound 93] | – | – | – | – | – | – | – | – | – | 6 (Level 6: above 60% growth inhibition rate) | 6 (Level 6: above 60% growth inhibition rate) | 1 (Level 1: above 1-10% growth inhibition rate) | 10 | 4 (Level 4: above 30% growth inhibition rate) | 3 (Level 3: above 20% growth inhibition rate) | 0 | 0 | 0 | –
8 | CCc1nn(CC)c(OC(=O)c2cn(C)nc2C)c1C(=O)c1ccc(S(C)(=O)=O)c(COCC(F)F)c1Cl [Compound 94] | – | – | – | – | – | – | – | – | – | – | – | – | – | – | – | – | – | – | weed control effect, Abutilon theophrasti (level) ([1]; 60 g/ha): 10; weed control effect, Bidens pilosa (level) ([1]; 60 g/ha): 8 (Level 8: above 80% growth inhibition rate); weed control effect, Digitaria sanguinalis (level) ([1]; 60 g/ha): 8 (Level 8: above 80% growth inhibition rate); weed control effect, Echinochloa crus-galli (level) ([1]; 60 g/ha): 8 (Level 8: above 80% growth inhibition rate); weed control effect, Rorippa indica (level) ([1]; 60 g/ha): 10; weed control effect, Setaria viridis (level) ([1]; 60 g/ha): 10; effect on crop, corn (level) ([2]; 60 g/ha): 0; effect on crop, rice (level) ([2]; 60 g/ha): 3 (Level 3: above 20% growth inhibition rate); effect on crop, wheat (level) ([2]; 60 g/ha): 0
9 | CCc1nn(CC)c(OC(=O)c2cn(C)nc2C)c1C(=O)c1ccc(S(C)(=O)=O)c(Cn2nc(C)cc2C)c1Cl [Compound 95] | – | – | – | – | – | – | – | – | – | 6 (Level 6: above 60% growth inhibition rate) | 6 (Level 6: above 60% growth inhibition rate) | 1 (Level 1: above 1-10% growth inhibition rate) | 10 | 4 (Level 4: above 30% growth inhibition rate) | 3 (Level 3: above 20% growth inhibition rate) | 0 | 0 | 0 | –
10 | CCOCc1c(S(C)(=O)=O)ccc(C(=O)c2c(C3CC3)nn(C(C)C)c2OC(=O)c2cn(C)nc2C)c1Cl [Compound 96] | – | – | – | – | – | – | – | – | – | – | – | – | – | – | – | – | – | – | weed control effect, Abutilon theophrasti (level) ([1]; 60 g/ha): 10; weed control effect, Bidens pilosa (level) ([1]; 60 g/ha): 8 (Level 8: above 80% growth inhibition rate); weed control effect, Digitaria sanguinalis (level) ([1]; 60 g/ha): 8 (Level 8: above 80% growth inhibition rate); weed control effect, Echinochloa crus-galli (level) ([1]; 60 g/ha): 10; weed control effect, Rorippa indica (level) ([1]; 60 g/ha): 10; weed control effect, Setaria viridis (level) ([1]; 60 g/ha): 10; effect on crop, corn (level) ([2]; 60 g/ha): 0; effect on crop, rice (level) ([2]; 60 g/ha): 4 (Level 4: above 30% growth inhibition rate); effect on crop, wheat (level) ([2]; 60 g/ha): 0
11 | Cc1cnn(Cc2c(S(C)(=O)=O)ccc(C(=O)c3cnn(C(C)C)c3OC(=O)c3cn(C)nc3C)c2Cl)c1 [Compound 97] | – | – | – | – | – | – | – | – | – | 6 (Level 6: above 60% growth inhibition rate) | 6 (Level 6: above 60% growth inhibition rate) | 1 (Level 1: above 1-10% growth inhibition rate) | 10 | 4 (Level 4: above 30% growth inhibition rate) | 3 (Level 3: above 20% growth inhibition rate) | 0 | 0 | 0 | –
12 | Cc1nn(C)cc1C(=O)Oc1c(C(=O)c2ccc(S(C)(=O)=O)c(COCC(F)(F)F)c2Cl)c(C)nn1C(C)C [Compound 98] | 5 (Level 5: above 50% growth inhibition rate) | 7 (Level 7: above 70% growth inhibition rate) | 8 (Level 8: above 80% growth inhibition rate) | 10 | 10 | 10 | 1 (Level 1: above 1-10% growth inhibition rate) | 5 (Level 5: above 50% growth inhibition rate) | 0 | – | – | – | – | – | – | – | – | – | –
13 | CCc1nn(C(C)C)c(OC(=O)c2cn(C)nc2C)c1C(=O)c1ccc(S(C)(=O)=O)c(Cn2cccn2)c1Cl [Compound 99] | 7 (Level 7: above 70% growth inhibition rate) | 7 (Level 7: above 70% growth inhibition rate) | 7 (Level 7: above 70% growth inhibition rate) | 10 | 10 | 8 (Level 8: above 80% growth inhibition rate) | 1 (Level 1: above 1-10% growth inhibition rate) | 1 (Level 1: above 1-10% growth inhibition rate) | 0 | – | – | – | – | – | – | – | – | – | –
